Assay results as given in patent publication US9447408B2, “Method of efficiently establishing induced pluripotent stem cells” (Kyoto University, priority 2010, dated 2016).

Tested on: Mouse embryonic fibroblasts (MEFs)
Assay: iPS cell establishment from MEFs, 3 genes (Oct3/4, Sox2, Klf4) introduced, with p38 inhibitors
Assay type: cell-based
Conditions: 10 μM inhibitor, 2×10^4 cells/10 cm dish, FIG. 2
Description: Three genes were introduced using a retrovirus by the same experimental procedures as the above. The cells were cultured at a cell density of 2×10^4 cells/10 cm dish, with the addition of 10 μM of SB202190, SB239063, or SB203580 (Calbiochem Company) to the medium per the schedule shown below, and the establishment efficiency was compared. • 1. Oct3/4, Sox2, Klf4, each derived from mouse, saline • 2. Oct3/4, Sox2, Klf4, each derived from mouse, DMSO • 3. Oct3/4, Sox2, Klf4, each derived from mouse, SB202190 10 μM (Day 1-4) • 4. Oct3/4, Sox2, Klf4, each derived from mouse, SB202190 10 μM (Day 1-8) • 5. Oct3/4, Sox2, Klf4, each derived from mouse, SB202190 10 μM (Day 9-16) • 6. Oct3/4, Sox2, Klf4, each derived from mouse, SB202190 10 μM (Day 1-16) • 7. Oct3/4, Sox2, Klf4, each derived from mouse, SB239063 10 μM (Day 1-4) • 8. Oct3/4, Sox2, Klf4, each derived from mouse, SB239063 10 μM (Day 1-8) • 9. Oct3/4, Sox2, Klf4, each derived from mouse, SB239063 10 μM (Day 9-16) • 10. Oct3/4, Sox2, Klf4, each derived from mouse, SB239063 10 μM (Day 1-16) • 11. Oct3/4, Sox2, Klf4, each derived from mouse, SB203580 10 μM (Day 1-4) • 12. Oct3/4, Sox2, Klf4, each derived from mouse, SB203580 10 μM (Day 1-8) • 13. Oct3/4, Sox2, Klf4, each derived from mouse, SB203580 10 μM (Day 9-16) • 14. Oct3/4, Sox2, Klf4, each derived from mouse, SB203580 10 μM (Day 1-16),

Compound: COc1nccc(-c2c(-c3ccc(F)cc3)ncn2[C@H]2CC[C@H](O)CC2)n1 [SB239063, trans-1-(4-Hydroxycyclohexyl)-4-(4-fluorophenyl)-5-(2-methoxypyrimidin-4-yl)imidazole]
- number of Nanog-GFP-positive colonies compared with physiological saline or DMSO: increased
- total number of colonies compared with physiological saline or DMSO: increased
